This is an account of results in US10640534B2 (Agios Pharmaceuticals, Inc., priority 2012, dated 2020).

This assay has as its system U87MG cells. Put plainly: Cellular assay, inhibition of 2-HG production in U87MG cells. The format is cell-based. The following applies: Homo sapiens, U-87 MG, 48 h. The procedure, abridged: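 HT1080 or U87MG cells (U87MG kept with 500 ug/mL G418) seeded at 5000 cells/well and treated with compound at 0.2% final DMSO. Incubated 48 h at 37 °C. 2-HG inhibition determined by LC-MS. Viability read by CellTiter-Glo luminescence at 72 h post-dose.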

The structures appear in SMILES notation. Some results are limits rather than exact numbers.

The term IC50 denotes the concentration that gives 50% inhibition. Take `O=C(NC1CC(F)(F)C1)C(c1ccccc1Cl)N(C(=O)[C@@H]1CCC(=O)N1c1ccccn1)c1cccc(F)c1` (stereo partly shown) [Compound 5]: the half-maximal inhibitory concentration (IC50) was in the range of 100 to 500 nM.
To `N#Cc1ccnc(N2C(=O)CC[C@H]2C(=O)N(c2cccc(F)c2)[C@H](C(=O)NC2CC(F)(F)C2)c2ccccc2Cl)c1` [Compound 37] belongs under 100 nM; to `N#Cc1ccnc(N2C(=O)CCC[C@H]2C(=O)N(c2cccc(F)c2)[C@H](C(=O)NC2CC(F)(F)C2)c2ccccc2Cl)c1` [Compound 55, (S)—N—((S)-1-(2-Chlorophenyl)-2-(3,3-difluorocyclobutylamino)-2-oxoethyl)-1-(4-cyanopyridin-2-yl)-N-(3-fluorophenyl)-6-oxopiperidine-2-carboxamide], under 100 nM; to `O=C(NC1CC(F)(F)C1)[C@H](c1ccccc1Cl)N(C(=O)[C@@H]1CCC(=O)N1c1ncccn1)c1cc(F)cc(F)c1` [Compound 70, (S)—N—((S)-1-(2-Chlorophenyl)-2-((3,3-difluorocyclobutyl)amino)-2-oxoethyl)-N-(3,5-difluoro-phenyl)-5-oxo-1-(pyrimidin-2-yl)pyrrolidine-2-carboxamide], under 100 nM.
For the compound `N#Cc1cc(C#N)cc(N(C(=O)[C@@H]2CCC(=O)N2c2cc(C#N)ccn2)C(C(=O)NC2CC(F)(F)C2)c2ccccc2Cl)c1` (stereo partly drawn) [Compound 191, (2S)—N-(1-(2-Chlorophenyl)-2-((3,3-difluorocyclobutyl)amino)-2-oxoethyl)-1-(4-cyanopyridin-2-yl)-N-(3,5-dicyanophenyl)-5-oxopyrrolidine-2-carboxamide], the 50% inhibitory concentration (IC50) was under 100 nM.
Turning to `N#Cc1ccnc(N2C(=O)CCC[C@H]2C(=O)N(c2cccc(F)c2)[C@H](C(=O)NC2CCC(F)(F)CC2)c2ccccc2Cl)c1` [Compound 75, (S)—N—((S)-1-(2-Chlorophenyl)-2-((4,4-difluorocyclohexyl)amino)-2-oxoethyl)-1-(4-cyano-pyridin-2-yl)-N-(3-fluorophenyl)-6-oxopiperidine-2-carboxamide], the 50% inhibitory concentration (IC50) is under 100 nM.
To `N#Cc1ccnc(N2C(=O)CC[C@H]2C(=O)N(c2cccc(S(N)(=O)=O)c2)[C@H](C(=O)NC2CC(F)(F)C2)c2ccccc2Cl)c1` [Compound 84, (S)—N—((S)-1-(2-Chlorophenyl)-2-(3,3-difluorocyclobutylamino)-2-oxoethyl)-1-(4-cyanopyridin-2-yl)-5-oxo-N-(3-sulfamoylphenyl)pyrrolidine-2-carboxamide] belongs 100 to 500 nM; to `N#Cc1ccnc(N2C(=O)CN(C3CC3)C[C@H]2C(=O)N(c2cc(F)cc(F)c2)[C@H](C(=O)NC2CC(F)(F)C2)c2ccccc2Cl)c1` [Compound 106, (S)—N—((S)-1-(2-chlorophenyl)-2-((3,3-difluorocyclobutyl)amino)-2-oxoethyl)-1-(4-cyanopyridin-2-yl)-4-cyclopropyl-N-(3,5-difluorophenyl)-6-oxopiperazine-2-carboxamide], under 100 nM.
Turning to `N#Cc1ccnc(N2C(=O)CC[C@H]2C(=O)N(c2cccc(F)c2)[C@H](C(=O)NC2CC(F)(F)C2)c2ccccc2F)c1` [Compound 149, (S)-1-(4-Cyanopyridin-2-yl)-N—((S)-2-((3,3-difluorocyclobutyl)amino)-1-(2-fluorophenyl)-2-oxoethyl)-N-(3-fluorophenyl)-5-oxopyrrolidine-2-carboxamide], the IC50 was under 100 nM.
To `N#Cc1ccnc(N2C(=O)CC[C@H]2C(=O)N(c2cc(F)ccc2F)[C@H](C(=O)NC2CC(F)(F)C2)c2ccccc2Cl)c1` [Compound 197, (S)—N—((S)-1-(2-Chlorophenyl)-2-((3,3-difluorocyclobutyl)amino)-2-oxoethyl)-1-(4-cyanopyridin-2-yl)-N-(2,5-difluorophenyl)-5-oxopyrrolidine-2-carboxamide] belongs under 100 nM.
`N#Cc1ccnc(N2C(=O)OCC[C@H]2C(=O)N(c2cc(F)cc(F)c2)[C@H](C(=O)NC2CC(F)(F)C2)c2ccccc2Cl)c1` [Compound 133, (S)—N—((S)-1-(2-Chlorophenyl)-2-((3,3-difluorocyclobutyl)amino)-2-oxoethyl)-3-(4-cyanopyridin-2-yl)-N-(3,5-difluorophenyl)-2-oxo-1,3-oxazinane-4-carboxamide] displayed an IC50 of under 100 nM.
The same measure for `N#Cc1ccnc(N2C(=O)[C@@H](O)C[C@H]2C(=O)N(c2cccc(F)c2)[C@H](C(=O)NC2CC(F)(F)C2)c2ccccc2Cl)c1` [Compound 118, (2S,4S)—N—((S)-1-(2-Chlorophenyl)-2-(3,3-difluorocyclobutylamino)-2-oxoethyl)-1-(4-cyano-pyridin-2-yl)-N-(3-fluorophenyl)-4-hydroxy-5-oxopyrrolidine-2-carboxamide]: under 100 nM; for `N#Cc1ccnc(N2C(=O)CN(CCO)C[C@H]2C(=O)N(c2cc(F)cc(F)c2)[C@H](C(=O)NC2CC(F)(F)C2)c2ccccc2Cl)c1` [Compound 107, (S)—N—((S)-1-(2-chlorophenyl)-2-((3,3-difluorocyclobutyl)amino)-2-oxoethyl)-1-(4-cyanopyridin-2-yl)-N-(3,5-difluorophenyl)-4-(2-hydroxyethyl)-6-oxopiperazine-2-carboxamide]: under 100 nM; for `N#Cc1ccnc(N2C(=O)[C@@H](O)C[C@H]2C(=O)N(c2cc(F)cc(F)c2)[C@H](C(=O)NC2CCC(F)(F)CC2)c2ccccc2Cl)c1` [Compound 174, (2S,4S)—N—((S)-1-(2-Chlorophenyl)-2-((4,4-difluorocyclohexyl)amino)-2-oxoethyl)-1-(4-cyanopyridin-2-yl)-N-(3,5-difluorophenyl)-4-hydroxy-5-oxopyrrolidine-2-carboxamide]: under 100 nM.
In the case of `N#Cc1ccnc(N2C(=O)CC[C@H]2C(=O)N(c2cc(F)cc(F)c2)C(C(=O)NC2CC(F)(F)C2)c2cccc(Cl)c2Cl)c1` (stereo partly drawn) [Compound 195, (2S)-1-(4-Cyanopyridin-2-yl)-N-(1-(2,3-dichlorophenyl)-2-(3,3-difluoro-cyclobutylamino)-2-oxoethyl)-N-(3,5-difluorophenyl)-5-oxopyrrolidine-2-carboxamide], the IC50 is under 100 nM.
As for `O=C(NC1CC(F)(F)C1)[C@H](c1ccccc1Cl)N(C(=O)[C@@H]1CCC(=O)N1c1cscn1)c1cccc(F)c1` [Compound 43, (S)—N—((S)-1-(2-Chlorophenyl)-2-(3,3-difluorocyclobutylamino)-2-oxoethyl)-N-(3-fluorophenyl)-5-oxo-1-(thiazol-4-yl)pyrrolidine-2-carboxamide], the IC50 was under 100 nM.
Regarding `CS(=O)(=O)c1cccc(N(C(=O)[C@@H]2CCC(=O)N2c2cc(C#N)ccn2)C(C(=O)NC2CCC(F)(F)CC2)c2ccccc2Cl)c1` (stereo partly drawn) [Compound 95, (2S)—N-(1-(2-Chlorophenyl)-2-((4,4-difluorocyclohexyl)amino)-2-oxoethyl)-1-(4-cyanopyridin-2-yl)-N-(3-(methylsulfonyl)phenyl)-5-oxopyrrolidine-2-carboxamide], the IC50 was under 100 nM.
On to `COc1cccc(N(C(=O)[C@@H]2CCC(=O)N2c2cc(C#N)ccn2)[C@H](C(=O)NC2CC(F)(F)C2)c2ccccc2Cl)c1` [Compound 129, (S)—N—((S)-1-(2C)-2-((3,3-difluorocyclobutyl)amino)-2-oxoethyl)-1-(4-cyanopyridin-2-yl)-N-(3-methoxyphenyl)-5-oxopyrrolidine-2-carboxamide], for which the IC50 is under 100 nM.
Compound `N#Cc1ccnc(N2C(=O)CC[C@H]2C(=O)N(c2cncc(F)c2)[C@H](C(=O)NC2CC(F)(F)C2)c2ccccc2Cl)c1` [Compound 176, (S)—N—((S)-1-(2-Chlorophenyl)-2-(3,3-difluorocyclobutylamino)-2-oxoethyl)-1-(4-cyanopyridin-2-yl)-N-(5-fluoropyridin-3-yl)-5-oxopyrrolidine-2-carboxamide] had an IC50 of under 100 nM.
For the compound `O=C(NC1CC(F)(F)C1)[C@H](c1ccccc1Cl)N(C(=O)[C@@H]1COCC(=O)N1c1ncccn1)c1cccc(F)c1` [Compound 30, (S)—N—((S)-1-(2-chlorophenyl)-2-((3,3-difluorocyclobutyl)amino)-2-oxoethyl)-N-(3-fluorophenyl)-5-oxo-4-(pyrimidin-2-yl)morpholine-3-carboxamide], the IC50 lay in the range of 100 to 500 nM.
To `CS(=O)(=O)c1cc(F)cc(N(C(=O)[C@@H]2CCC(=O)N2c2nccc(C#N)n2)C(C(=O)NC2CCC(F)(F)CC2)c2ccccc2Cl)c1` (stereo partly drawn) [Compound 108, (2S)—N-(1-(2-Chlorophenyl)-2-((4,4-difluorocyclohexyl)amino)-2-oxoethyl)-1-(4-cyanopyrimidin-2-yl)-N-(3-fluoro-5-(methylsulfonyl)phenyl)-5-oxopyrrolidine-2-carboxamide] belongs under 100 nM; to `O=C(NC1CC(F)(F)C1)C(c1c(Cl)cccc1Cl)N(C(=O)[C@@H]1CCC(=O)N1c1ncccn1)c1cccc(F)c1` (stereo partly shown) [Compound 51], 100 to 500 nM.
To `N#Cc1ccnc(N2C(=O)OCC[C@H]2C(=O)N(c2cc(F)cc(F)c2)[C@H](C(=O)NC2CCC(F)(F)CC2)c2ccccc2Cl)n1` [Compound 144, (S)—N—((S)-1-(2-Chlorophenyl)-2-((4,4-difluorocyclohexyl)amino)-2-oxoethyl)-3-(4-cyanopyrimidin-2-yl)-N-(3,5-difluorophenyl)-2-oxo-1,3-oxazinane-4-carboxamide] belongs under 100 nM; to `N#Cc1ccnc(N2C(=O)CC[C@H]2C(=O)N(c2cccc(F)c2)[C@H](C(=O)NC2CCC(F)(F)CC2)c2ccccc2Cl)c1` [Compound 53], under 100 nM; to `CC(C)(C)OC(=O)N1CC(=O)N(c2nccc(C#N)n2)[C@H](C(=O)N(c2cc(F)cc(F)c2)[C@H](C(=O)NC2CCC(F)(F)CC2)c2ccccc2Cl)C1` [Compound 93, (S)-tert-Butyl 3-(((S)-1-(2-chlorophenyl)-2-((4,4-difluorocyclohexyl)amino)-2-oxoethyl)(3,5-difluorophenyl)carbamoyl)-4-(4-cyanopyrimidin-2-yl)-5-oxopiperazine-1-carboxylate], under 100 nM.
